The record followed here is patent publication US20250049812A1, “Compounds that Inhibit Necroptosis and Their Preparation Methods” (SHANGHAI INSTITUTE OF ORGANIC CHEMISTRY, CHINESE ACADEMY OF …, priority 2021, published 2025).

Usually pIC50 stands for the IC50 on a negative log10 scale, so that one unit is a factor of ten.

Each structure is given as a SMILES string. pIC50: −log10 of the molar value.

The subject of the test is Jurkat FADD (−/−) Cells. Nature of the test: TNF-α induced necroptosis of Jurkat FADD-deficient cells (CellTiter-Glo cell survival). Type of test: cell-based, human. Conditions: Homo sapiens; TNF-α induced necroptosis, Jurkat FADD-deficient cells, 13 hours, CellTiter-Glo; read-out: IC50. The method, then:
1. Cell Activity Testing System (TNF-α Induces the Necroptosis of Jurkat Cells, the Human Leukemia Cells Deficient in FADD).
(1) Cell culture: Jurkat FADD-deficient cells were cultured in an RPMI 1640 medium with 10% fetal bovine serum (FBS), 100 U/mL penicillin, and 100 […]. The cells were cultured in a cell culture incubator at 37° C. with 5% CO2. And all the cells were cryopreserved in a complete medium containing 5-10% DMSO. Medium change and passage were performed 3-4 times per week.
(4) Experimental scheme: The system of TNF-α inducing the necroptosis of Jurkat FADD-deficient cells was used to screen for compounds with RIPKl kinase inhibitory activity.
Jurkat FADD-deficient cells were evenly inoculated into a 384-well plate with each well added with a 40 μL complete culture medium, followed by the addition of 5 μL of the under-testing compound to each well. The initial concentration of the compounds was set at 25 μM (for some compounds with higher activity, the initial concentration was set at 0.5 μM), with a three-fold gradient dilution, totaling 12 gradient points. Three replicate wells were set for each compound. In addition, there was a blank control group and a control group with TNFα stimulation only. After the compound was added, the mixture needed to be centrifuged and incubated in a cell culture incubator at 37° C. containing 5% CO2 for 1 hour. After that, 5 μL of 5 ng/mL TNFα was added to stimulate the occurrence of necroptosis. After centrifugation and mixing, the mixture was placed in the cell culture incubator for 13 hours (until the cell death rate reaches 65% in the group with only TNF-α), with a total volume of 50 μL per well. Then, the steps below were followed to test the cell survival rate.
The CellTiter-Glo® Buffer was removed from the reagent kit, equilibrated to room temperature, and used to dissolve the CellTiter-Glo® Substrate. The CellTiter-Glo® Reagent obtained could be directly used for the experiment.
15 μL of CellTiter-Glo® Reagent which has been equilibrated to room temperature was added to each well, and incubated in the dark for 15 minutes. After that, a microplate reader (Enspire Multimode Plate Reader of PerkinElmer, USA) was used to measure the chemiluminescence.
Background: ATP-based viability assays read luminescence as a measure of living cells.
With `CN1C(=O)C(NC(=O)c2nnc(Cc3ccccc3)[nH]2)Cc2cn(-c3ncccc3S(=O)(=O)C3CC3)c3cccc1c23` (racemic) [T-109, (±)-5-benzyl-N-(6-(3-(cyclopropylsulfonyl)pyridin-2-yl)-1-methyl-2-oxo-2,3,4,6-tetrahydro-1H-azacyclo [4,3,2-cd]indol-3-yl)-4H-1,2,4-triazole-3-carboxamide], the negative logarithm of the IC50 (pIC50) is over 8.00. `CN1C(=O)C(NC(=O)c2nnc(Cc3ccccc3)[nH]2)Cn2cc(Br)c3ccc(Br)c1c32` (racemic) [T-79, (±)-5-benzyl-N-(7,10-dibromo-1-methyl-2-oxo-1,2,3,4-tetrahydro-[1,4]diazepino [3,2,1-hi]indol-3-yl)-4H-1,2,4-triazole-3-carboxamide]: the pIC50 is under 6.00. Turning to `CN1C(=O)[C@@H](NC(=O)c2nnc(Cc3ccccc3)[nH]2)Cn2cc(-c3cnn(CC(F)(F)F)c3)c3cccc1c32` [T-124, (S)-5-benzyl-N-(1-methyl-2-oxo-7-(1-(2,2,2-trifluoroethyl)-1H-pyrazol-4-yl)-1,2,3,4-tetrahydro-[1,4]diazepine [3,2,1-hi]indol-3-yl)-4H-1,2,4-triazole-3-carboxamide], the pIC50 is 7.00 to 8.00. On to `CN1C(=O)[C@@H](NC(=O)c2nnc(Cc3ccccc3)[nH]2)Cn2cc(-c3cncs3)c3cccc1c32` [T-123, (S)-5-benzyl-N-(1-methyl-2-oxo-7-(thiazol-5-yl)-1,2,3,4-tetrahydro-[1,4]diazepine [3,2,1-hi]indol-3-yl)-4H-1,2,4-triazole-3-carboxamide], for which the pIC50 was 7.00 to 8.00. Next, `CN1C(=O)C(NC(=O)c2nnc(Cc3ccccc3)[nH]2)Cc2cn(CC(N)=O)c3cccc1c23` (racemic) [T-31, (±)-N-(6-(2-amino-2-oxoethyl)-1-methyl-2-oxo-2,3,4,6-tetrahydro-1H-azacyclo [4,3,2-cd]indol-3-yl)-5-benzyl-4H-1,2,4-triazole-3-carboxamide]: 6.00 to 7.00. As for `CN1C(=O)C(NC(=O)c2nnc(Cc3ccccc3)[nH]2)Cn2ccc3cccc1c32` (racemic) [T-1, (±)-5-benzyl-N-(1-methyl-2-oxy-1,2,3,4-tetrahydro-[1,4]diazepino [3,2,1-hi]indol-3-yl)-4H-1,2,4-triazole-3-carboxamide], the figure is over 8.00; as for `CN1C(=O)[C@@H](NC(=O)c2nnc(Cc3ccccc3)[nH]2)Cn2cc(-c3cnn(C4CCOCC4)c3)c3cccc1c32` [T-120, (S)-5-benzyl-N-(1-methyl-2-oxo-7-(1-(tetrahydro-2H-pyran-4-yl)-1H-pyrazol-4-yl)-1,2,3,4-tetrahydro-1,4-diazepine[3,2,1-hi]indol-3-yl)-4H-1,2,4-triazole-3-carboxamide], over 8.00; as for `CN1C(=O)C(NC(=O)c2nnc(Cc3ccccc3)[nH]2)Cc2cn(-c3cccnn3)c3cccc1c23` (racemic) [T-106, (±)-5-benzyl-N-(1-methyl-2-oxo-6-(pyridazin-3-yl)-2,3,4,6-tetrahydro-1H-aza [4,3,2-cd]indol-3-yl)-4H-1,2,4-triazole-3-carboxamide], 6.00 to 7.00. As for `CN1C(=O)C(NC(=O)c2nnc(Cc3ccccc3)[nH]2)Cc2cn(-c3ncccc3C(C)(C)O)c3cccc1c23` (racemic) [T-55, (±)-5-benzyl-N-(6-(3-(2-hydroxypropan-2-yl)pyridin-2-yl)-1-methyl-2-oxy-2,3,4,6-tetrahydro-1H-azacyclo [4,3,2-cd]indol-3-yl)-4H-1,2,4-triazole-3-carboxamide], the figure is 7.00 to 8.00; as for `CN1C(=O)C(NC(=O)c2nnc(Cc3ccccc3)[nH]2)Cc2cn(-c3ncccc3CC(F)(F)F)c3cccc1c23` (racemic) [T-97, (±)-5-benzyl-N-(1-methyl-2-oxo-6-(3-(2,2,2-trifluoroethyl)pyridin-2-yl)-2,3,4,6-tetrahydro-1H-azacyclo [4,3,2-cd]indol-3-yl)-4H-1,2,4-triazole-3-carboxamide], over 8.00.
